According to article PMC8049054, “Systematic Assessment of Fragment Identification for Multitarget Drug Design” (Chemmedchem, 2021):

Target: T1, LTA4H (Homo sapiens, UniProt P09960)
T1 construct: made in house; host or cells: E. coli BL21 (DE3)
T1 sequence (P09960 1-611): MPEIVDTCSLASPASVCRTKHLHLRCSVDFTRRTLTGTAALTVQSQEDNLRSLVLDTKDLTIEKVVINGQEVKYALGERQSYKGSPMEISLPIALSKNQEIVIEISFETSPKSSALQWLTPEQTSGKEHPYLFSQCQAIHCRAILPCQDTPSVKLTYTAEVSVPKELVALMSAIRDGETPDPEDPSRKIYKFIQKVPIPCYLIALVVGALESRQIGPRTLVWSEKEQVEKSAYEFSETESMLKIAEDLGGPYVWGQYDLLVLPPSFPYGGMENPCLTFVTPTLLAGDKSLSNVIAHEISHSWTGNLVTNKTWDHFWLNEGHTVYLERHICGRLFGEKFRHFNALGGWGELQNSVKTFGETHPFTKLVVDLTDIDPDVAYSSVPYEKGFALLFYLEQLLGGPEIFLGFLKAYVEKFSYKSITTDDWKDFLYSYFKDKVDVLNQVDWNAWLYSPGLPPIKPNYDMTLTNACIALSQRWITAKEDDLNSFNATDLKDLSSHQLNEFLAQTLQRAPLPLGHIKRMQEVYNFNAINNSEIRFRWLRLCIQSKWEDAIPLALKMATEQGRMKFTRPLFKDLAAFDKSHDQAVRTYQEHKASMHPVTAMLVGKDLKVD
Assay: ITC measurement LTA4H
Assay type: binding
Conditions: 25 °C, read-out: LTA4H K d

Kd | Compound
5.3 µM | Oc1ccc(-c2ccc(F)cc2F)cc1 [Compound 9]
1.7 µM | Fc1ccc(-c2c[nH]c3ccccc23)cc1 [Compound 10]
